From BindingDB's records for patent US20250282736 (ST. JUDE CHILDREN''S RESEARCH HOSPITAL, 2025)

Target: T1, PXR (Nuclear receptor subfamily 1 group I member 2) (Homo sapiens, UniProt O75469)
T1 sequence (O75469 whole entry): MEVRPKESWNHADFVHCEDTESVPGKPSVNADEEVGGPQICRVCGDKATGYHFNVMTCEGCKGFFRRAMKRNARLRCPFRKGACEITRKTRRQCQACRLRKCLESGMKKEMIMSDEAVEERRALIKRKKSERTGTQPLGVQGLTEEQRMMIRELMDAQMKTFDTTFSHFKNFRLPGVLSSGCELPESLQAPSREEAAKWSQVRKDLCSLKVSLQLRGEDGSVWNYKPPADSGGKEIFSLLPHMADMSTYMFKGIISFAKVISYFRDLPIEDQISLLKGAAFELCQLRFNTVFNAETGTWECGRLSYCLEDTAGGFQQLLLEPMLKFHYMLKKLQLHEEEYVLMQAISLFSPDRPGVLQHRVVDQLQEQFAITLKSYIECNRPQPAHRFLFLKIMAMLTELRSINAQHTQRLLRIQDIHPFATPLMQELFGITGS
Assay: In Vitro Assay
Source text: PXR can be determined in an in vitro assay system. Such in vitro assay systems include assay such as the assays as described herein.

Question: `COc1ccc(Cl)cc1-n1nnc(C(=O)Nc2cc(C(C)(C)C)ccc2OCC(=O)O)c1C` [US20250282736, Compound B25] was tested. Which IC50 did it give?
Answer: The IC50 was 360 nM.

Question: With `CCCC(CC)Oc1ccc(C(C)(C)C)cc1NC(=O)c1nnn(-c2cc(OC)ccc2OC)c1C` (configuration not stated) [US20250282736, Compound J1] as the compound, how does the IC50 read?
Answer: Its IC50 is 3.8 nM.
